From patent US11319324B2, “Pyrazolo-pyrrolo-pyrimidine-dione derivatives as P2X3 inhibitors” (Bayer Aktiengesellschaft, priority 2017, dated 2022)

Key:
[1] = clinical trials; affecting taste sensation via the tongue; cited from earlier work
human P2X3 receptor [2] = target: T1, human P2X3 receptor (Homo sapiens, UniProt P56373); assay: Intracellular calcium measurement to assess antagonist activity at human P2X3 receptors (hP2X3 FLIPR); assay type: cell-based; set-up: expressed in transfected cells; host or cells: human astrocytoma 1321N1 (1312N1 [sic]); details: head prints (1321N1); read-out: 1) hP2X3 IC50 [nM] (1321N1)
T1 sequence (P56373 1-397): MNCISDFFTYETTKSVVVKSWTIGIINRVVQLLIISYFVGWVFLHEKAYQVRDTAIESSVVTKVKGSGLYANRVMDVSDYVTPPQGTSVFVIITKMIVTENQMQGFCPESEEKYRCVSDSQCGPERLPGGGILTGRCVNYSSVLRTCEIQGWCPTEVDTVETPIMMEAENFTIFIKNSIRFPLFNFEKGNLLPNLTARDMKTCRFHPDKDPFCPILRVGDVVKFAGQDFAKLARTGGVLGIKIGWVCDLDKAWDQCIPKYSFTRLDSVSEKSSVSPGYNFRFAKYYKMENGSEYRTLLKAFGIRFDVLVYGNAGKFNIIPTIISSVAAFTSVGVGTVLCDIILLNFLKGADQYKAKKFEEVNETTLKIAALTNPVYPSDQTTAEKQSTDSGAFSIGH
Procedure: 1) Intracellular Calcium Measurement to Assess Antagonist Activity at Human P2X3 Receptors (hP2X3 FLIPR)
A fluorescent imaging plate reader (FLEX/FLIPR station; Molecular Devices) was used to monitor intracellular calcium levels using the calcium-chelating dye Fluo-4 (Molecular Probes). The excitation and emission wavelengths used to monitor fluorescence were 470-495 nm and 515-575 nm, respectively. The human astrocytoma […] cells expressing purinergic receptors P2X3 (human) were plated at a density of 15,000 cells/well in collagen—coated 384-well plates approximately 20 hours before beginning the assay. […] The dye supernatant was removed and replaced with 45 μl probenecid buffer (Hank's balanced salt solution, 20 mM HEPES, 0.5 mM CaCl2, 0.5 mM MgCl2, 0.1% BSA, 5 mM probenecid, 10 mM D-glucose monohydrate, pH=7.4). The test compounds were added in a volume of 5 μl and allowed to incubate for 30 min at 37° C. The final assay DMSO concentration is 1%. […] The fluorescence was measured for an interval of 90 sec at 2 sec intervals and analyzed based on the increase in peak relative fluorescence units (RFU) compared to the basal fluorescence. Peak fluorescence was used to determine the response to agonist obtained at each concentration of test compound by the following equation: Response=100*(RFU(test compound)−RFU(control))/(RFU(DMSO)−RFU(control))
The Examples were tested in triplicates per plate and mean values were plotted in Excel XLFit to determine IC50 values at the human P2X3 and human P2X2/3 receptors, percentage of maximal inhibition and the Hill coefficients.

human P2X3 receptor [3] = target: T1, human P2X3 receptor; assay: Intracellular calcium measurement to assess antagonist activity at human P2X3 receptors (hP2X3 CHO), photina luminescence; assay type: cell-based; set-up: expressed in transfected cells; host or cells: Chinese hamster ovary (CHO) cells; details: column 2), CHO cells, agonist α,β-methylene-ATP at EC50
Outline: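 Antagonism read as lowered photina luminescence after agonist stimulation in recombinant hP2X3/photina CHO cells. Cells seeded one day earlier (30 °C) and reconstituted with 5 μg/ml coelenterazine in 2 mM Ca-tyrode buffer for 3 h at 37 °C before measurement.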

human P2X2/3 receptors = target: T2, human P2X2/3 receptors (Homo sapiens, UniProt P56373+Q9UBL9); assay: Intracellular calcium measurement, antagonist activity at human P2X2/3 receptors (hP2X23 1321N1), Fluo8; assay type: cell-based; details: for IC50: column 4); 1321N1 cells, human P2X2/3, Fluo8, agonist ATP at EC50; read-out: 4) hP2X2/3 IC50 [nM] (1321N1); for hP2X23/hP2X3* Selectivity (1321N1): ratio of column 4) hP2X2/3 to column 3) hP2X3, 1321N1
T2 construct: expressed in transfected cells; host or cells: human astrocytoma 1321N1 (1312N1 [sic])
T2 sequence (P56373 1-397): T1 sequence (P56373 1-397)
T2 sequence (Q9UBL9 1-471): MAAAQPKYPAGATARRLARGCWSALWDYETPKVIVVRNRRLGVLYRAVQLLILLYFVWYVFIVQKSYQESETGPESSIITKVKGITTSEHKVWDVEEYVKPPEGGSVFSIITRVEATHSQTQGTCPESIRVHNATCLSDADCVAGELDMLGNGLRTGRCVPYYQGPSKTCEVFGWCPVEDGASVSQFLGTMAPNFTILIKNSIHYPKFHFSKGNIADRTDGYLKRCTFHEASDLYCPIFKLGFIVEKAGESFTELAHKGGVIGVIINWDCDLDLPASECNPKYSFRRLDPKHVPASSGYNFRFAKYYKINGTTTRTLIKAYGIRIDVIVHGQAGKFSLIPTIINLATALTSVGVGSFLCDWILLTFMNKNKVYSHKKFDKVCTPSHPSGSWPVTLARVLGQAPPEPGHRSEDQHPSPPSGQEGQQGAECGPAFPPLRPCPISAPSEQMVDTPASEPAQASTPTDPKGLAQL
Outline: (§1)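 Antagonism was assessed by decrease of the Fluo8 calcium signal after ATP challenge, with ATP dosed at the EC50 of whichever receptor was tested. Stable 1321N1 astrocytoma lines expressed either human P2X3 or both P2X2 and P2X3, and were dye-loaded 60 min before a 10 min compound incubation.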

human P2X3 receptor [4] = target: T1, human P2X3 receptor; assay: Intracellular calcium measurement, antagonist activity at human P2X3 receptors (hP2X3 1321N1), Fluo8; assay type: cell-based; set-up: expressed in transfected cells; host or cells: human astrocytoma 1321N1 (1312N1 [sic]); details: column 3); 1321N1 cells, human P2X3, Fluo8, agonist ATP at EC50
Outline: as §1

Q: Which “taste disturbances in treated subjects” value [1] does the source give for `COc1cc(C(C)C)c(Oc2cnc(N)nc2N)cc1S(N)(=O)=O` [AF-219] here?
A: leads to taste disturbances

Q: What does the source list for `CC(C)N1Cc2c(n(CC(=O)Nc3ccc(Cl)cn3)c3cc(C(F)(F)F)nn3c2=O)C1=O` [Example 29]?
A: IC50 (human P2X3 receptor [2]): 62 nM; IC50 (human P2X3 receptor [3]): 41 nM; IC50 (human P2X2/3 receptors): 4150 nM; hP2X23/hP2X3* Selectivity (1321N1) (human P2X2/3 receptors): 115; IC50 (human P2X3 receptor [4]): 36 nM

Q: With `CC[C@H](C)N1Cc2c(n(CC(=O)Nc3ccc(F)cn3)c3cc(C)nn3c2=O)C1=O` [Example 53] as the compound, how does the IC50 (human P2X3 receptor [2]) read?
A: 133 nM

Q: And the IC50 (human P2X3 receptor [3])?
A: 195 nM

Q: And the IC50 (human P2X2/3 receptors)?
A: > 22000 nM

Q: And the “hP2X23/hP2X3* Selectivity (1321N1)” value (human P2X2/3 receptors)?
A: >110

Q: What about the IC50 (human P2X3 receptor [4]) of the same compound?
A: 200 nM

Q: For `CC(C)(C)c1cc2n(CC(=O)Nc3ccc(F)cn3)c3c(c(=O)n2n1)CN(CCO)C3=O` [Example 135, 2-[2-tert-butyl-6-(2-hydroxyethyl)-5,8-dioxo-5,6,7,8-tetrahydro-4H-pyrazolo[1,5-a]pyrrolo[3,4-d]pyrimidin-4-yl]-N-(5-fluoropyridin-2-yl)acetamide], which IC50 (human P2X3 receptor [2]) is on record?
A: 40 nM

Q: What about the IC50 (human P2X3 receptor [3]) of the same compound?
A: 59 nM

Q: What about the IC50 (human P2X2/3 receptors) of the same compound?
A: 6850 nM

Q: And the “hP2X23/hP2X3* Selectivity (1321N1)” value (human P2X2/3 receptors)?
A: 58

Q: And the IC50 (human P2X3 receptor [4])?
A: 119 nM

Q: For `CC(C)(C)c1cc2n(CC(=O)Nc3ccc(F)cn3)c3c(c(=O)n2n1)CN(CCN1CCOCC1)C3=O` [Example 138, 2-{2-tert-butyl-6-[2-(morpholin-4-yl)ethyl]-5,8-dioxo-5,6,7,8-tetrahydro-4H-pyrazolo[1,5-a]pyrrolo[3,4-d]pyrimidin-4-yl}-N-(5-fluoropyridin-2-yl)acetamide], which IC50 (human P2X3 receptor [2]) is on record?
A: 56 nM

Q: And the IC50 (human P2X3 receptor [3])?
A: 32 nM

Q: And the IC50 (human P2X2/3 receptors)?
A: 9150 nM

Q: And the “hP2X23/hP2X3* Selectivity (1321N1)” value (human P2X2/3 receptors)?
A: 107

Q: And the IC50 (human P2X3 receptor [4])?
A: 86 nM

Q: Which IC50 (human P2X3 receptor [2]) does the source give for `CCc1cc2n(CC(=O)Nc3ccc(F)cn3)c3c(c(=O)n2n1)CN(C(C)C)C3=O` [Example 24] here?
A: 35 nM

Q: What about the IC50 (human P2X3 receptor [3]) of the same compound?
A: 60 nM

Q: What about the IC50 (human P2X2/3 receptors) of the same compound?
A: 10000 nM

Q: And the “hP2X23/hP2X3* Selectivity (1321N1)” value (human P2X2/3 receptors)?
A: 132

Q: What about the IC50 (human P2X3 receptor [4]) of the same compound?
A: 76 nM

Q: What does the source list for `CC[C@H](C)N1Cc2c(n(CC(=O)Nc3ccc(F)cn3)c3cc(C(F)(F)F)nn3c2=O)C1=O` [Example 20]?
A: IC50 (human P2X3 receptor [2]): 312 nM; IC50 (human P2X3 receptor [3]): 375 nM; IC50 (human P2X2/3 receptors): > 22000 nM; hP2X23/hP2X3* Selectivity (1321N1) (human P2X2/3 receptors): >41; IC50 (human P2X3 receptor [4]): 537 nM

Q: With `CC(C)[C@H](C)N1Cc2c(n(CC(=O)Nc3ccc(F)cn3)c3cc(C(C)(C)C)nn3c2=O)C1=O` [Example 10] as the compound, how does the IC50 (human P2X3 receptor [2]) read?
A: 24 nM

Q: And the IC50 (human P2X3 receptor [3])?
A: 38 nM

Q: And the IC50 (human P2X2/3 receptors)?
A: > 32000 nM

Q: And the “hP2X23/hP2X3* Selectivity (1321N1)” value (human P2X2/3 receptors)?
A: >101

Q: What about the IC50 (human P2X3 receptor [4]) of the same compound?
A: 317 nM

Q: Which IC50 (human P2X3 receptor [2]) does the source give for `COC[C@H](C)N1Cc2c(n(CC(=O)Nc3ccc(F)cn3)c3cc(C(C)(C)C)nn3c2=O)C1=O` [Example 35] here?
A: 12 nM

Q: What about the IC50 (human P2X3 receptor [3]) of the same compound?
A: 20 nM

Q: What about the IC50 (human P2X2/3 receptors) of the same compound?
A: 5650 nM

Q: What about the “hP2X23/hP2X3* Selectivity (1321N1)” value (human P2X2/3 receptors) of the same compound?
A: 353

Q: And the IC50 (human P2X3 receptor [4])?
A: 16 nM

Q: For `CC(C)c1cc2n(CC(=O)Nc3ccc(F)cn3)c3c(c(=O)n2n1)CN(CC(C)(C)O)C3=O` [Example 51], which IC50 (human P2X3 receptor [2]) is on record?
A: 311 nM

Q: And the IC50 (human P2X3 receptor [3])?
A: 160 nM

Q: And the IC50 (human P2X2/3 receptors)?
A: 11500 nM

Q: What about the “hP2X23/hP2X3* Selectivity (1321N1)” value (human P2X2/3 receptors) of the same compound?
A: 46

Q: What about the IC50 (human P2X3 receptor [4]) of the same compound?
A: 253 nM

Q: Which IC50 (human P2X3 receptor [2]) does the source give for `CC[C@@H](C)N1Cc2c(n(CC(=O)Nc3ccc(C)cn3)c3cc(C(F)(F)F)nn3c2=O)C1=O` [Example 16] here?
A: 100 nM

Q: What about the IC50 (human P2X3 receptor [3]) of the same compound?
A: 320 nM

Q: What about the IC50 (human P2X2/3 receptors) of the same compound?
A: > 100000 nM

Q: And the “hP2X23/hP2X3* Selectivity (1321N1)” value (human P2X2/3 receptors)?
A: >6

Q: What about the IC50 (human P2X3 receptor [4]) of the same compound?
A: > 16600 nM

Q: Which IC50 (human P2X3 receptor [2]) does the source give for `CC[C@@H](C)N1Cc2c(n(CC(=O)Nc3ccc(F)cn3)c3cc(C(F)(F)F)nn3c2=O)C1=O` [Example 14] here?
A: 30 nM

Q: What about the IC50 (human P2X3 receptor [3]) of the same compound?
A: 60 nM

Q: And the IC50 (human P2X2/3 receptors)?
A: 11500 nM

Q: What about the “hP2X23/hP2X3* Selectivity (1321N1)” value (human P2X2/3 receptors) of the same compound?
A: 194

Q: And the IC50 (human P2X3 receptor [4])?
A: 59 nM

Q: For `Cc1cc2n(CC(=O)Nc3ccc(F)cn3)c3c(c(=O)n2n1)CN(C(C)C)C3=O` [Example 23], which IC50 (human P2X3 receptor [2]) is on record?
A: 80 nM

Q: And the IC50 (human P2X3 receptor [3])?
A: 64 nM

Q: What about the IC50 (human P2X2/3 receptors) of the same compound?
A: > 20600 nM

Q: What about the “hP2X23/hP2X3* Selectivity (1321N1)” value (human P2X2/3 receptors) of the same compound?
A: >11134

Q: And the IC50 (human P2X3 receptor [4])?
A: 153 nM

Q: Which IC50 (human P2X3 receptor [2]) does the source give for `CC(C)(C)c1cc2n(CC(=O)Nc3ccc(F)cn3)c3c(c(=O)n2n1)CN(C1COC1)C3=O` [Example 27] here?
A: 95 nM

Q: And the IC50 (human P2X3 receptor [3])?
A: 118 nM

Q: And the IC50 (human P2X2/3 receptors)?
A: > 21000 nM

Q: And the “hP2X23/hP2X3* Selectivity (1321N1)” value (human P2X2/3 receptors)?
A: >102

Q: What about the IC50 (human P2X3 receptor [4]) of the same compound?
A: 205 nM
